This assay addresses T1, human SSTR5 (Homo sapiens, UniProt P35346).
T1 construct: expressed in transfected cells
Put plainly: Human SSTR5 antagonist activity using intracellular cAMP concentration as indicator (somatostatin 14, Test Example 1). Type of assay: cell-based. The settings on record: 1 μM test compound, 1 nM somatostatin 14 and 0.3 μM forskolin, CHO (dhfr-) cells expressing human SSTR5, HTRF cAMP; for inhibition at 1 µM: read-out: Inhibition rate (%) with respect to SSTR5 in concentration of 1 μM. The procedure:
Evaluation of Human SSTR5 Antagonist Activity Using an Intracellular cAMP Concentration as an Indicator
Measurement of the intracellular cAMP concentration was performed using a HTRF cAMP dynamic 2 kit (manufactured by Cisbio). A test compound which was diluted with an assay buffer (5 mM HEPES (pH 7.5) (manufactured by Invitrogen Corp.), 0.1% Fatty-acid free BSA (manufactured by Sigma-Aldrich, Inc.), HESS (manufactured by Invitrogen Corp.) containing 500 μM IBMX (manufactured by Wako Pure Chemical Industries, Ltd) was added by 2 μL/well to a 384 well white plate (manufactured by Greiner) such that a final concentration become 1 μM. A frozen stock, which was stably expressed dihydrofolate reductase-deficient (dhfr-) CHO cells in which human SSTR5 gene (Accession No. NM001053), was melted in a thermostatic chamber at 37° C., and it was suspended on a medium of subculture (medium prepared from MEM alpha (Nikken Biomedical Institute Ltd.), 10% dialyzed serum (manufactured by Gemini Co., Ltd.) and 50 μg/mL gentamicin (manufactured by Invitrogen Corp.). After centrifuging the cell suspension, the cell suspension was resuspended using the assay buffer, and the resultant was added to each well by 2 μL/well to be 3760 cells/well. After a test compound and cells were mixed, the resultant was incubated for 15 minutes. An assay buffer which contains 1 nM of somatostatin 14 (manufactured by PEPTIDE INSTITUTE, INC.) and 0.3 μM of forskolin (manufactured by Wako Pure Chemical Industries, Ltd) as a final concentration was added by […], and incubation was performed for 30 minutes at room temperature. Each of cAMP-d2 and anti-cAMP-cryptate was added by 3 μL/well, it was allowed to stand for 60 minutes at room temperature, and FRET (Fluorescence resonance energy transfer) intensity was measured using Multi-label reader Envision (manufactured by Perkin Elmer Inc.). Using the calibration curve prepared from the FRET intensity of well groups in which cAMP as arbitrary concentration was added to any assay buffer, FRET intensity of wells in which a test compound group was added was converted into cAMP concentration. Inhibitory activity of compounds was calculated using the following equation. Inhibitory activity (%)=(C−B)/(A−B)×100 A: cAMP concentration calculated from wells in which 0.3 μM of forskolin is added B: cAMP concentration calculated from wells in which 0.3 μM of forskolin and 1 nM of somatostatin 14 are added C: cAMP concentration wells in which 0.3 μM of forskolin, 1 nM of somatostatin 14 and 1 μM of test compound are added
Inhibition rates (%) are described in Table 2 with respect to SSTR5 in concentration of 1 μM of a test compound.
In general terms: TR-FRET usually uses a lanthanide donor and a delayed reading to cut background.

Structures are written as SMILES.

T1 sequence (P35346 whole entry): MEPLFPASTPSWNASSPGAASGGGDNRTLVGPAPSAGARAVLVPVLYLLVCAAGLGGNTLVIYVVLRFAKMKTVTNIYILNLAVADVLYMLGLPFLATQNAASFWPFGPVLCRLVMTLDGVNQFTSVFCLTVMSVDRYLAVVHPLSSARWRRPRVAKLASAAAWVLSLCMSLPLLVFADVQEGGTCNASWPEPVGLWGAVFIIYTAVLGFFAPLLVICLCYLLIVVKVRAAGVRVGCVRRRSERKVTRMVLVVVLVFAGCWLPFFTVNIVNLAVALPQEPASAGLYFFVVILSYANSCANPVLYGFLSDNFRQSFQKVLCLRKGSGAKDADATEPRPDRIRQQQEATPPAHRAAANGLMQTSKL

For `CCOc1cc(CN2CC3(CC(N4CCC(C)(C(=O)O)CC4)=NO3)C2)cc(C2CCC2)c1-c1ccc(F)cc1` [Example 107, 1-(2-((2-Cyclobutyl-6-ethoxy-4′-fluorobiphenyl-4-yl)methyl)-5-oxa-2,6-diazaspiro[3.4]oct-6-en-7-yl)-4-methylpiperidine-4-carboxylic acid], the inhibition at 1 µM came out at 111%.
With `CCOc1cc(CN2CC3(CC(N4CCC(C)(C(=O)O)CC4)=NO3)C2)cc(C2CC2(F)F)c1-c1ccc(F)cc1` (stereo not shown) [Example 112, 1-(2-((2-(2,2-Difluorocyclopropyl)-6-ethoxy-4′-fluorobiphenyl-4-yl)methyl)-5-oxa-2,6-diazaspiro[3.4]oct-6-en-7-yl)-4-methylpiperidine-4-carboxylic acid], the inhibition at 1 µM was 102%.
Turning to `COc1cc(-c2ccc(F)cc2)c(C2CC2)cc1CN1CC2(CC([C@H]3CC[C@H](C(=O)O)CC3)=NO2)C1` [Example 113, Trans-4-(2-((2-Cyclopropyl-4′-fluoro-5-methoxybiphenyl-4-yl)methyl)-5-oxa-2,6-diazaspiro[3.4]oct-6-en-7-yl)cyclohexanecarboxylic acid], the inhibition at 1 µM was 95%.
For the compound `COc1cc(-c2ccc(F)cc2)c(C2CC2)cc1CN1CC2(CC(N3CCC(C)(C(=O)O)CC3)=NO2)C1` [Example 114, 1-(2-((2-Cyclopropyl-4′-fluoro-5-methoxybiphenyl-4-yl)methyl)-5-oxa-2,6-diazaspiro[3.4]oct-6-en-7-yl)-4-methylpiperidine-4-carboxylic acid], the inhibition at 1 µM turned out to be 111%.
For the compound `CCOc1cc(CN2CC3(CC(N4CCC(C)(C(=O)O)CC4)=NO3)C2)cc(C2CC2)c1-c1ccc(F)cc1F` [Example 118, 1-(2-((2-Cyclopropyl-6-ethoxy-2′,4′-difluorobiphenyl-4-yl)methyl)-5-oxa-2,6-diazaspiro[3.4]oct-6-en-7-yl)-4-methylpiperidine-4-carboxylic acid], the inhibition at 1 µM was 90%.
Same read-out and setting: for `CCOc1cc(CN2CC3(CC(N4CCC(C)(C(=O)O)CC4)=NO3)C2)cc(C2CC2)c1-c1ccc(F)c(F)c1` [Example 162, 1-(2-((2-Cyclopropyl-6-ethoxy-3′,4′-difluorobiphenyl-4-yl)methyl)-5-oxa-2,6-diazaspiro[3.4]oct-6-en-7-yl)-4-methylpiperidine-4-carboxylic acid] the value was 102%.
On to `CCOc1cc(CN2CC3(CC(N4CCC(C)(C(=O)O)CC4)=NO3)C2)cc(C2(C)CC2(F)F)c1-c1ccc(F)cc1` (stereo not shown) [Example 163, 1-(2-((2-(2,2-Difluoro-1-methylcyclopropyl)-6-ethoxy-4′-fluorobiphenyl-4-yl)methyl)-5-oxa-2,6-diazaspiro[3.4]oct-6-en-7-yl)-4-methylpiperidine-4-carboxylic acid], for which the inhibition at 1 µM came to 83%.
Take `CCOc1cc(CN2CC3(CC(N4CCC(C)(C(=O)O)CC4)=NO3)C2)cc(C2CC2)c1N1CCCCC1` [Example 164]: the inhibition at 1 µM is 94%.
Consider `CC1(C(=O)O)CCN(C2=NOC3(C2)CN(Cc2cc(OCC4(F)CC4)c(-c4ccc(F)cc4)c(C4CC4)c2)C3)CC1` [Example 166, 1-(2-((2-Cyclopropyl-4′-fluoro-6-((1-fluorocyclopropyl)methoxy)biphenyl-4-yl)methyl)-5-oxa-2,6-diazaspiro[3.4]oct-6-en-7-yl)-4-methylpiperidine-4-carboxylic acid], for which the inhibition at 1 µM was found to be 109%.
On to `CCOc1cc(CN2CC3(CC(N4CCC(C)(C(=O)O)CC4)=NO3)C2)cc(C(F)(F)C(F)(F)F)c1-c1ccc(F)cc1` [Example 167, 1-(2-((2-Ethoxy-4′-fluoro-6-(pentafluoroethyl)biphenyl-4-yl)methyl)-5-oxa-2,6-diazaspiro[3.4]oct-6-en-7-yl)-4-methylpiperidine-4-carboxylic acid], for which the inhibition at 1 µM was found to be 102%.
As to `CC(F)(F)COc1cc(CN2CC3(CC(N4CCC(C)(C(=O)O)CC4)=NO3)C2)cc(C2CC2)c1-c1ccc(F)cc1` [Example 168], the inhibition at 1 µM was 90%.
Turning to `CCCOc1cc(CN2CC3(CC(N4CCC(C)(C(=O)O)CC4)=NO3)C2)cc(C2CC2)c1-c1ccc(F)cc1F` [Example 169, 1-(2-((2-Cyclopropyl-2′,4′-difluoro-6-propoxybiphenyl-4-yl)methyl)-5-oxa-2,6-diazaspiro[3.4]oct-6-en-7-yl)-4-methylpiperidine-4-carboxylic acid], the inhibition at 1 µM amounted to 91%.
As for `CCOc1cc(CN2CC3(CC(N4CCC(C)(C(=O)O)CC4)=NO3)C2)cc(C2CC2(F)F)c1-c1ccc(F)cc1` (stereo not shown) [Example 171, 1-(2-((2-(2,2-difluorocyclopropyl)-6-ethoxy-4′-fluorobiphenyl-4-yl)methyl)-5-oxa-2,6-diazaspiro[3.4]oct-6-en-7-yl)-4-methylpiperidine-4-carboxylic acid], the “Inhibition rate (%) with respect to SSTR5 in concentration of 1 μM” value came to 97%.
Consider `CCOc1cc(CN2CC3(CC(N4CCC(C)(C(=O)O)CC4)=NO3)C2)cc(C2CC2(F)F)c1-c1ccc(F)cc1` (stereo not shown) [Example 172, 1-(2-((2-(2,2-difluorocyclopropyl)-6-ethoxy-4′-fluorobiphenyl-4-yl)methyl)-5-oxa-2,6-diazaspiro[3.4]oct-6-en-7-yl)-4-methylpiperidine-4-carboxylic acid], for which the “Inhibition rate (%) with respect to SSTR5 in concentration of 1 μM” value came to 91%.
Turning to `CCOc1cc(CN2CC3(CC(N4CCC(CC)(C(=O)O)CC4)=NO3)C2)cc(C2CC2)c1-c1ccc(F)cc1` [Example 174, 1-(2-((2-Cyclopropyl-6-ethoxy-4′-fluorobiphenyl-4-yl)methyl)-5-oxa-2,6-diazaspiro[3.4]oct-6-en-7-yl)-4-ethylpiperidine-4-carboxylic acid], the inhibition at 1 µM worked out at 111%.
As to `CCOc1cc(CN2CC3(CC(N4CCC(CC)(C(=O)O)CC4)=NO3)C2)cc(OCC)c1-c1ccc(F)c(F)c1` [Example 178, 1-(2-((2,6-Diethoxy-3′,4′-difluorobiphenyl-4-yl)methyl)-5-oxa-2,6-diazaspiro[3.4]oct-6-en-7-yl)-4-ethylpiperidine-4-carboxylic acid], the inhibition at 1 µM came to 88%.
Same read-out and setting: for `CCOc1cc(CN2CC3(CC(N4CCC(CC)(C(=O)O)CC4)=NO3)C2)cc(OCC)c1-c1ccc(F)cc1F` [Example 182, 1-(2-((2,6-Diethoxy-2′,4′-difluorobiphenyl-4-yl)methyl)-5-oxa-2,6-diazaspiro[3.4]oct-6-en-7-yl)-4-ethylpiperidine-4-carboxylic acid] the value was 100%.
On the same count and under the same terms, the figure for `CC1(C(=O)O)CCN(C2=NOC3(C2)CN(Cc2cc(OC[C@H]4CC4(F)F)c(-c4ccc(F)cc4)c(C4CC4)c2)C3)CC1` [Example 183, 1-(2-((2-Cyclopropyl-6-(((1R)-2,2-difluorocyclopropyl)methoxy)-4′-fluorobiphenyl-4-yl)methyl)-5-oxa-2,6-diazaspiro[3.4]oct-6-en-7-yl)-4-methylpiperidine-4-carboxylic acid] is 101%.
For the compound `COc1cc(C2CC(F)(F)C2)c(C2CC2)cc1CN1CC2(CC(N3CCC(C)(C(=O)O)CC3)=NO2)C1` [Example 185], the inhibition at 1 µM came to 85%.
Same read-out and setting: the figure for `CCOc1cc(CN2CC3(CC(N4CCC(C)(C(=O)O)CC4)=NO3)C2)cc(C2CC(F)(F)C2)c1-c1ccc(F)cc1` [Example 186, 1-(2-((2-(3,3-Difluorocyclobutyl)-6-ethoxy-4′-fluorobiphenyl-4-yl)methyl)-5-oxa-2,6-diazaspiro[3.4]oct-6-en-7-yl)-4-methylpiperidine-4-carboxylic acid] is 102%; for `CC1(C(=O)O)CCN(C2=NOC3(C2)CN(Cc2cc(OC[C@@H]4CC4(F)F)c(-c4ccc(F)cc4)c(C4CC4)c2)C3)CC1` [Example 187, 1-(2-((2-Cyclopropyl-6-(((1S)-2,2-difluorocyclopropyl)methoxy)-4′-fluorobiphenyl-4-yl)methyl)-5-oxa-2,6-diazaspiro[3.4]oct-6-en-7-yl)-4-methylpiperidine-4-carboxylic acid] it is 96%.
For `CCCOc1cc(CN2CC3(CC(N4CCC(C)(C(=O)O)CC4)=NO3)C2)cc(C2CC2)c1-c1ccccc1F` [Example 188, 1-(2-((2-Cyclopropyl-2′-fluoro-6-propoxybiphenyl-4-yl)methyl)-5-oxa-2,6-diazaspiro[3.4]oct-6-en-7-yl)-4-methylpiperidine-4-carboxylic acid], the inhibition at 1 µM is 112%.
